In patent US20150065416A1, “NOVEL DRUG COMBINATION” (FAB PHARMA SAS, priority 2013, published 2015):

Legend:
Type in all cases: cell-based, Acinetobacter baumannii
[1] = tested on: A. baumannii isolates; assay: Individual antimicrobial susceptibility testing (MIC, broth microdilution, CLSI)
Description: In the antimicrobial susceptibility testing 77 isolates of A. baumannii (from 2010) in the following sub-groups were tested: • 22 isolates generally susceptible to antimicrobial agents (“Sus”) • 20 carbapenem-resistant isolates (e.g. “MPM-R”) • 20 aminoglycoside-resistant isolates (e.g. “AMK-R”) • 15 colistin-resistant isolates. (e.g. “COL-R”)
Minimum inhibitory concentration (MIC) endpoints were determined by broth microdilution according to CLSI guidelines (CLSI, M7-A8 & M100-S22, 2012). Panels were prepared at IHMA using cation-adjusted Mueller-Hinton broth. Colonies were taken directly from a second-pass culture plate and prepared to a suspension equivalent of the 0.5 McFarland standard using normal saline.
Testing was carried out as described in the General Procedures to determine minimum inhibitory concentration (MIC) end points for compound (I), amikacin, colistin, gentamicin, meropenem and tobramycin, for 77 A. baumannii isolates. Under the “MIC (μg/ml)” heading, the first column (Range) indicates the MIC end points for the particular number (N) of isolates tested, the second column (50%) provides an estimate of the concentration that inhibits 50% (MIC50) of bacterial isolates tested, and the third column (90%) provides an estimate of the concentration that inhibits 90% of the bacterial isolates tested.

[2] = tested on: A. baumannii isolates; assay: Checkerboard testing (compound (I)/antibacterial agent interaction, FIC index)
Description: Checkerboard interaction studies were performed using 5 isolates from each of the sub-groups and time kill studies were performed using 3 isolates from each sub-group.
Checkerboards (20 isolates, 5 per sub-group) were prepared so as to contain multiple concentrations of compound (I) with different additional antibacterial agents (amikacin, gentamicin, colistin, meropenem and tobramycin) as follows:
Serial two-fold dilutions of the antimicrobial agents alone or in combination in wells of 96 well microtiter plates were inoculated with the appropriate inoculum so that each well contained approximately 4-5×10^4 CFU/ml. Plates were incubated at 35° C. for 16-20 hours. Combination concentrations were tested between 0.25×MIC and 2×MIC. Growth and sterility controls were also included in each plate.
Synergy, indifference and antagonism were calculated based upon the use of the fractional inhibitory concentration (FIC) indices as described by Pillai, Moellering & Eliopoulos (2005) whereby:
Synergism=FIC index of ≦0.5 Indifference=FIC index >1 but ≦4 Additivity >0.5 to 1 Antagonism=FIC index of >4
Checkerboard studies were carried out as described in General Procedures using twenty different A. baumannii isolates with 5 per sub-group of: susceptible, amikacin-resistant, colistin-resistant and meropenem-resistant.

[3] = tested on: A. baumannii isolates; assay: Time kill study (Example 4); details: for Time to kill 99.9%: alone
Description: A total of 12 isolates were tested (three per sub-group either susceptible, meropenem-resistant, amikacin-resistant or colistin-resistant). Two combinations were tested per isolate. Time-kill kinetics were performed by testing compound (I) and an additional antibacterial agent (amikacin, colistin and meropenem) individually at 1× and 4× the corresponding MIC of each antibacterial agent. […] Samples were taken at 0, 2, 4, 8 and 24 hours in order to determine colony forming units (CFU/mL).
Time-kill studies were carried out as described in General Procedures using combinations of compound (I) with amikacin, meropenem and colistin, respectively.

[4] = tested on: A. baumannii CIP 5377, CIP 7034, AYE, SAN, RCH; assay: Antimicrobial susceptibility testing (MIC, broth microdilution, EUCAST; Example 5)
Description: A. baumannii CIP 5377 (ATCC® 17978): low cephalosporinase producing strain, susceptible to meropenem and amikacin, isolated in an infected patient
A. baumannii CIP 7034: low cephalosporinase producing strain, susceptible to meropenem and amikacin A. baumannii AYE ATCC® BAA1710™: extended spectrum beta-lactamase producing strain susceptible to meropenem and resistant to amikacin
A. baumannii SAN-94040 (SAN): cephalosporinase-overproducing strain, susceptible to meropenem and intermediate to amikacin and resistant to fluoroquinolones, isolated from blood cultures of an intensive care patient with nosocomial pneumonia from North Africa (Algeria).
A. baumannii RCH-69: cephalosporinase producing strain; low susceptibility to imipenem and resistant to amikacin.

[5] = Amikacin-resistant isolates, N=20
[6] = Colistin-resistant isolates, N=15
[7] = Meropenem-resistant isolates, N=20

colistin
mode MIC ([1]; 77 isolates, FIG. 1 and 2): lowest mode MIC | MIC 50% ([1]; All isolates, N=77): 0.5 µg/mL | MIC 90% ([1]; All isolates, N=77): 8 µg/mL | MIC 50% [1, 5]: 0.5 µg/mL | MIC 90% [1, 5]: 1 µg/mL | MIC Range [1, 5]: 0.25 to 2 µg/mL | MIC 50% [1, 6]: 8 µg/mL | MIC 90% [1, 6]: >32 µg/mL | MIC 50% [1, 7]: 0.5 µg/mL | MIC 90% [1, 7]: 1 µg/mL | MIC Range [1, 7]: 0.25 to 1 µg/mL | MIC 50% ([1]; Susceptible isolates, N=22): 0.5 µg/mL | MIC 90% ([1]; Susceptible isolates, N=22): 0.5 µg/mL | MIC Range ([1]; Susceptible isolates, N=22): 0.06 to 1 µg/mL | MIC ([2]; A. baumannii 441142, colistin-resistant): 8 µg/mL | MIC ([2]; A. baumannii 441160, colistin-resistant): 4 µg/mL | MIC ([2]; A. baumannii 463996, colistin-resistant): 4 µg/mL | MIC ([2]; A. baumannii 466936, colistin-resistant): 8 µg/mL | MIC ([2]; A. baumannii 517303, colistin-resistant): >1024 µg/mL | MIC ([2]; A. baumannii 618649, meropenem-resistant): 0.5 µg/mL | MIC ([2]; A. baumannii 625917, meropenem-resistant): 0.5 µg/mL | MIC ([2]; A. baumannii 628760, susceptible): 0.5 µg/mL | MIC ([2]; A. baumannii 637723, amikacin-resistant): 0.5 µg/mL | MIC ([2]; A. baumannii 638115, amikacin-resistant): 0.5 µg/mL | MIC ([2]; A. baumannii 650216, meropenem-resistant): 0.25 µg/mL | MIC ([2]; A. baumannii 655932, amikacin-resistant): 0.5 µg/mL | MIC ([2]; A. baumannii 661954, amikacin-resistant): 1 µg/mL | MIC ([2]; A. baumannii 667848, meropenem-resistant): 0.5 µg/mL | MIC ([2]; A. baumannii 668116, susceptible): 1 µg/mL | MIC ([2]; A. baumannii 668239, amikacin-resistant): 0.5 µg/mL | MIC ([2]; A. baumannii 670348, susceptible): 0.5 µg/mL | MIC ([2]; A. baumannii 671050, meropenem-resistant): 0.5 µg/mL | MIC ([2]; A. baumannii 672190, susceptible): 0.5 µg/mL | MIC ([2]; A. baumannii 674340, susceptible): 0.5 µg/mL | Time to kill 99.9% ([3]; AMK-R-1, 1xMIC): 1.4 h | Time to kill 99.9% ([3]; AMK-R-1, 4xMIC): 1.3 h | Time to kill 99.9% ([3]; AMK-R-2, 1xMIC): 2.3 h | Time to kill 99.9% ([3]; AMK-R-2, 4xMIC): 1.8 h | Time to kill 99.9% ([3]; AMK-R-3, 1xMIC): >24 h^ | Time to kill 99.9% ([3]; AMK-R-3, 4xMIC): 2.9 h | Time to kill 99.9% ([3]; COL-R-1, 1xMIC): 2.8 h | Time to kill 99.9% ([3]; COL-R-1, 4xMIC): 2.3 h | Time to kill 99.9% ([3]; COL-R-2, 1xMIC): >24 h^ | Time to kill 99.9% ([3]; COL-R-2, 4xMIC): >24 h | Time to kill 99.9% ([3]; COL-R-3, 1xMIC): 2.7 h | Time to kill 99.9% ([3]; COL-R-3, 4xMIC): 2.1 h | Time to kill 99.9% ([3]; MPM-R-1 (second line, Table 8 r14), 1xMIC): 1.3 h | Time to kill 99.9% ([3]; MPM-R-1 (second line, Table 8 r14), 4xMIC): 1.6 h | Time to kill 99.9% ([3]; MPM-R-1, 1xMIC): 5.0 h | Time to kill 99.9% ([3]; MPM-R-1, 4xMIC): 8.1 h | Time to kill 99.9% ([3]; MPM-R-3, 1xMIC): 2 h | Time to kill 99.9% ([3]; MPM-R-3, 4xMIC): 5.1 h | Time to kill 99.9% ([3]; Sus-1, 1xMIC): >24 h^ | Time to kill 99.9% ([3]; Sus-1, 4xMIC): >24 h | Time to kill 99.9% ([3]; Sus-2, 4xMIC): 6.3 h | Time to kill 99.9% ([3]; Sus-3, 1xMIC): 1.6 h | Time to kill 99.9% ([3]; Sus-3, 4xMIC): 3.6 h | effect in time-kill studies when tested alone ([3]; alone at 1× or 4×MIC): generally bactericidal | MIC ([3]; isolate AMK-R-1): 0.5 µg/mL | MIC ([3]; isolate AMK-R-2): 0.5 µg/mL | MIC ([3]; isolate AMK-R-3): 0.25 µg/mL | MIC ([3]; isolate COL-R-1): 8 µg/mL | MIC ([3]; isolate COL-R-2): 4 µg/mL | MIC ([3]; isolate COL-R-3): 16 µg/mL | MIC ([3]; isolate MPM-R-1): 0.25 µg/mL | MIC ([3]; isolate MPM-R-3): 1 µg/mL | MIC ([3]; isolate Sus-1): 1 µg/mL | MIC ([3]; isolate Sus-2): 0.5 µg/mL | MIC ([3]; isolate Sus-3): 0.25 µg/mL | MIC ([3]; isolate printed MPM-R-1 (second such line of Table 8, r14)): 1 µg/mL | MIC ([4]; A. baumannii AYE): 1 µg/mL | MIC ([4]; A. baumannii CIP 5377): 0.5 µg/mL | MIC ([4]; A. baumannii CIP 7034): 0.5 µg/mL | MIC ([4]; A. baumannii RCH): 0.5 µg/mL | MIC ([4]; A. baumannii SAN): 1 µg/mL
